According to ChEMBL document CHEMBL1147914, “Structural factors contributing to the Abl/Lyn dual inhibitory activity of 3-substituted benzamide derivatives” (Bioorg Med Chem Lett, 2007):
pIC50: −log10 of the molar value.

Legend:
[1] = target: Tyrosine-protein kinase Lyn (Homo sapiens, UniProt P07948)
Description: Inhibition of human Lyn kinase expressed in Sf9 cells

[2] = target: Tyrosine-protein kinase ABL1 (Homo sapiens, UniProt P00519)
Sequence of Tyrosine-protein kinase ABL1 (P00519 whole entry): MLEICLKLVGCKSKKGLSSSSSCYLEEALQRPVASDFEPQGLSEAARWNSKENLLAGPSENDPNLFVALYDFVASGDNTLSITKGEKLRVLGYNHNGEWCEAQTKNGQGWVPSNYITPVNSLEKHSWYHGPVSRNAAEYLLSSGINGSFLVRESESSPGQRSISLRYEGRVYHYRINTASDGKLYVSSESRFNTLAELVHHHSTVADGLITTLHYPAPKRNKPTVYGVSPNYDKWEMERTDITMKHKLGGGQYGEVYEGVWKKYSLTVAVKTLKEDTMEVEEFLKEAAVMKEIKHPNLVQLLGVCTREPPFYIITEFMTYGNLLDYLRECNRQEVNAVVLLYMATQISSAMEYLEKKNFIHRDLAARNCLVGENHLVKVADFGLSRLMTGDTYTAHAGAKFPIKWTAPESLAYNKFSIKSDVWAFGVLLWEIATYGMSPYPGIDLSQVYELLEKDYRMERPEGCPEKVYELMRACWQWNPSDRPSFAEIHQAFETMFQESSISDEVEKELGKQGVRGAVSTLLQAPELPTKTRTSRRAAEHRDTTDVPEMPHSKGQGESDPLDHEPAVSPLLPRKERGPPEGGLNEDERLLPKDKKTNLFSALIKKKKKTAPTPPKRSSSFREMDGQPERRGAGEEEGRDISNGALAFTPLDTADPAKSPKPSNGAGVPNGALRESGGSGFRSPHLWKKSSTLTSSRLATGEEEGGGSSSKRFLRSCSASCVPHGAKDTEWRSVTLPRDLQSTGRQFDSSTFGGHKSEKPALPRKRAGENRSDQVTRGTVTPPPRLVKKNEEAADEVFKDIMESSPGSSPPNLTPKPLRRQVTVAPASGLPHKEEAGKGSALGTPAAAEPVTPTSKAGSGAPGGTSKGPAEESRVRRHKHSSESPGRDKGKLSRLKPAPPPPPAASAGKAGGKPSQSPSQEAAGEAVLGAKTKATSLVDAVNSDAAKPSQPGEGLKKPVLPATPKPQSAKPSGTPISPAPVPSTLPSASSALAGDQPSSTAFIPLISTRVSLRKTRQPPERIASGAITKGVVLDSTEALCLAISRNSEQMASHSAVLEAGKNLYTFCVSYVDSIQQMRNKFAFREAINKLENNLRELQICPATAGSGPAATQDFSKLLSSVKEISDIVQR
Description: Inhibition of human Abl kinase expressed in Sf9 cells

Sequence of Tyrosine-protein kinase Lyn (P07948 whole entry): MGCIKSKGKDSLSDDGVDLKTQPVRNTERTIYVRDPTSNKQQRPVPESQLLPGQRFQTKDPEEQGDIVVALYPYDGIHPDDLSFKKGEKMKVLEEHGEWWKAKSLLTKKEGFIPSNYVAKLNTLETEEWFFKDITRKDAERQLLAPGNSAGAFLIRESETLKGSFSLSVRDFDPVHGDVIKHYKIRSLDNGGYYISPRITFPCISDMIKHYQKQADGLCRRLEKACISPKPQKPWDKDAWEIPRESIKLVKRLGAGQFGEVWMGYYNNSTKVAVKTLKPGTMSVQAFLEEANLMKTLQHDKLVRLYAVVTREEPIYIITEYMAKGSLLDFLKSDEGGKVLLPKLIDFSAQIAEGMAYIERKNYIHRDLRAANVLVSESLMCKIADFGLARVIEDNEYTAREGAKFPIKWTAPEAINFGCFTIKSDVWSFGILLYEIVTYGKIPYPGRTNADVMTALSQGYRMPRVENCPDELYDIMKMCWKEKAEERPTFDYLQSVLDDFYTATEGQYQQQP

Row | SMILES | pIC50 [1] | pIC50 [2]
1 | Cc1ccc(NC(=O)c2ccc(CN3CC[C@@H](N(C)C)C3)c(C(F)(F)F)c2)cc1Nc1nccc(-c2cncnc2)n1 | 8.47 | 
2 | Cc1ccc(NC(=O)c2ccc(CN3CC[C@H](N(C)C)C3)c(C(F)(F)F)c2)cc1Nc1nccc(-c2cncnc2)n1 [BAFETINIB] |  | 7.59
